Results from publication PMC9519552, “Activation of the human insulin receptor by non-insulin-related peptides” (Nature Communications, 2022).
Where two headings read alike, the source gives them in different places. Positions of bridges follow the written chain, without caps; N, C: chain ends. Non-standard residues stand in square brackets, D forms with d. Residues, ends and D or L forms follow the SMILES beside them. *: point of attachment. X1 = NCc1ccc(CC(=O)*)cc1; PhAc = O=C(Cc1ccccc1)*; Aib = CC(C)(N)C(=O)O

Legend:
human IR-A (holoIR-A) = molecular target: T1, human IR-A (holoIR-A) (Homo sapiens, UniProt P06213); experiment: holoIR-A competitive radioligand binding assay (scintillation proximity assay); settings: for affinity for hIR (in words): comparable to that of BHI; for Ki: primary peptide set, mean of 3 runs, read-out: IRA Binding Ki Mean
T1 construct: expressed in transfected cells; host or cells: HEK293 (ATCC #CRL-1573), stably transfected; membrane preparation
How it was run: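 Membranes from HEK293 cells stably expressing C9-tagged human IR-A were used in a WGA-bead SPA competition assay in 50 mM Tris-HCl pH 7.5, 150 mM NaCl, 0.1% fatty-acid-free BSA. Ten-point 3-fold dilutions were incubated 10 h at room temperature before scintillation counting. Percent specific inhibition was calculated after nonspecific-binding correction, from three independent runs.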

[1] = molecular target: T2, human holoIR-A over-expressed in HEK293 cells (Homo sapiens, UniProt P06213); experiment: holoIR-A auto-phosphorylation assay (ELISA); format: cell-based; settings: for weaker activity than BHI in an hIR autophosphorylation assay: relative to biosynthetic human insulin
T2 construct: expressed in transfected cells; host or cells: HEK293, stably transfected
Method: Phosphorylation was quantified using an ELISA technique. Ninety-six well, flat-bottom microplates (Greiner Bio-One) were pre-coated with 2 µg mL^−1 anti-C9 monoclonal antibody (Rho 1D4; University of British Columbia)[27] in 20 mM sodium carbonate, pH 9.6, at 4 °C for overnight prior to the assay. On the assay day, plates were washed 3× with 0.1% Tween in 50 mM Tris Buffer Saline, pH 7.5 (TBST), and then blocked for greater than 1 h at room temperature (RT) with 1% BSA (Sigma) in TBST.
Stably transfected HEK293 cells over-expressing human holoIR-A containing a C-terminal C9 epitope tag ([…]), were plated at 6 × 10^4 cells per well serum-starved using 0.1% BSA in DMEM (Gibco) for overnight at standard tissue culture condition. […] After a 15-min incubation in lysis buffer at 4 °C, the lysate was transferred to anti-C9 antibody coated capture plate (Rho 1D4; University of British Columbia)[27]. […] After a 1 h incubation at room temperature, the secondary antibody was removed by washing 3× with TBST. Signal detection occurred with the addition of TMB, an HRP substrate (Pierce). After 5–10 min, the reaction was stopped by adding an equal volume of 2 M H2SO4, and the absorbance readings at 450 nm (A450) were recorded using a Envision plate reader (PerkinElmer). Samples were tested in three independent assay runs on three different days.
Percent specific response (y-axis) was plotted versus the log concentration of compound (x-axis) using Prism Version 9.3.1 (GraphPad Software). Individual measurements are provided as Source Data.

[2] = tested on: [holoIR-A]-expressing IM-9 human lymphoblast cells; experiment: holoIR-A accelerated dissociation assay of pre-bound 125I-insulin; format: binding; settings: IM-9 cells, 1:40 dilution, 16 °C, 30 min; n = 3
Method: Ice-cold 15-25 pM ^125I-insulin solution was added to IM-9 cells and incubated at 4 °C for 2.5 h for pre-bound experiments. […] Following receptor and ^125I-insulin pre-bound, the mix was quickly centrifugated and supernatant was removed. The bound ^125I-insulin and IM-9 cells were then resuspended with 16 °C pre-equilibrated HBB, pH 7.6. The ^125I-ligand/IM-9 cell mixture was aliquoted to cold compounds at 1:40 ratio, respectively. The reactions were incubated at 16 °C for 30 min to allow dissociation of prebound ^125I-insulin and then harvested by centrifugation and aspiration of the supernatant. The radioactivity of cell pellets was determined by gamma counter (Perkin Elmer). Samples were tested in three independent assay runs on three different days. Individual measurements are provided as Source Data.

[3] = molecular target: T2, human holoIR-A over-expressed in HEK293 cells; experiment: Inhibition of hIR phosphorylation by peptides, co-incubated with BHI at its EC50 (ELISA); format: cell-based
How it was run: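 Phosphorylation ELISA (TMB, A450) after anti-C9 capture of lysates from stably transfected HEK293 cells expressing C-terminally C9-tagged human holoIR-A, serum-starved overnight in 0.1% BSA/DMEM. Percent specific response versus log concentration, from three independent runs on three days.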

[4] = primary peptide set, mean of 3 runs, read-out: hIRA Phosph EC50 Mean
[5] = Fig. 1b, HEK293 hIR-A cells, 1 h 37 °C, ELISA, errors given as SEM, n = 3 independent replicates, read-out: Auto-phosphorylation constant EC50

T1 sequence (P06213 28-1370 isoform P06213-2 limits assumed): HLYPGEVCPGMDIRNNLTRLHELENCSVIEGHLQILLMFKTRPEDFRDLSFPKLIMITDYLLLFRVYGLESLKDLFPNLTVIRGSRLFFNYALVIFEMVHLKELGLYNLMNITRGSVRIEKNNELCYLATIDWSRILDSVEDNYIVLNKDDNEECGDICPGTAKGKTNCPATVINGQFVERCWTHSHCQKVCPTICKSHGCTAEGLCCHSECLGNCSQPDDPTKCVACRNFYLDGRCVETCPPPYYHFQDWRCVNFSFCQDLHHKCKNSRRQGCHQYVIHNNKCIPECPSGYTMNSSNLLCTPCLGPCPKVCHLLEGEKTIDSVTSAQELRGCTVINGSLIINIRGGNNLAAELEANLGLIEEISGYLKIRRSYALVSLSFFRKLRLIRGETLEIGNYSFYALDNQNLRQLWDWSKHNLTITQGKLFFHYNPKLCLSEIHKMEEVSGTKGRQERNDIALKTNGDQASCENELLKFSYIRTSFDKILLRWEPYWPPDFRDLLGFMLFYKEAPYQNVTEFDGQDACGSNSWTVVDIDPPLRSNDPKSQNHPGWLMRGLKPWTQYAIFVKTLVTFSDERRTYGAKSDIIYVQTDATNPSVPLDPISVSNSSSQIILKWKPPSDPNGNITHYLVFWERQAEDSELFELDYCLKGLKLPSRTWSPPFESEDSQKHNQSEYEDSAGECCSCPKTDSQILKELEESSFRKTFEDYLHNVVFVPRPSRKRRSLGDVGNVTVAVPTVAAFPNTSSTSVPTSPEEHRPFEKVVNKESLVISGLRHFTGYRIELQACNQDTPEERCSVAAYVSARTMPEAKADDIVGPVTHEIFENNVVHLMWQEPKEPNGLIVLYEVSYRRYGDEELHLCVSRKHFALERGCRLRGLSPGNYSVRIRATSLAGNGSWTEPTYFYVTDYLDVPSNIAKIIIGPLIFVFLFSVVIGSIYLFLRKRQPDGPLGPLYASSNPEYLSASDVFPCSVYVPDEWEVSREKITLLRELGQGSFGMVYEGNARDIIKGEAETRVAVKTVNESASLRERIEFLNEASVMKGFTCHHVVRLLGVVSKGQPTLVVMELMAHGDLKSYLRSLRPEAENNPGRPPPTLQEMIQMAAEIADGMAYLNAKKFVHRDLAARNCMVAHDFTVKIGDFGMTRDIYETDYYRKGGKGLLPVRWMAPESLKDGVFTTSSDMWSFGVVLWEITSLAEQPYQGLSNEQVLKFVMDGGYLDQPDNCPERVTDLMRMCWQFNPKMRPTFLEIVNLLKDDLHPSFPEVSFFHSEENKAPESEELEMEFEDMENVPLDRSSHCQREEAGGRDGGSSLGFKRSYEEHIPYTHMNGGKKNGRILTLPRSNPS
T1 sequence (P06213 763-1382 partner limits assumed): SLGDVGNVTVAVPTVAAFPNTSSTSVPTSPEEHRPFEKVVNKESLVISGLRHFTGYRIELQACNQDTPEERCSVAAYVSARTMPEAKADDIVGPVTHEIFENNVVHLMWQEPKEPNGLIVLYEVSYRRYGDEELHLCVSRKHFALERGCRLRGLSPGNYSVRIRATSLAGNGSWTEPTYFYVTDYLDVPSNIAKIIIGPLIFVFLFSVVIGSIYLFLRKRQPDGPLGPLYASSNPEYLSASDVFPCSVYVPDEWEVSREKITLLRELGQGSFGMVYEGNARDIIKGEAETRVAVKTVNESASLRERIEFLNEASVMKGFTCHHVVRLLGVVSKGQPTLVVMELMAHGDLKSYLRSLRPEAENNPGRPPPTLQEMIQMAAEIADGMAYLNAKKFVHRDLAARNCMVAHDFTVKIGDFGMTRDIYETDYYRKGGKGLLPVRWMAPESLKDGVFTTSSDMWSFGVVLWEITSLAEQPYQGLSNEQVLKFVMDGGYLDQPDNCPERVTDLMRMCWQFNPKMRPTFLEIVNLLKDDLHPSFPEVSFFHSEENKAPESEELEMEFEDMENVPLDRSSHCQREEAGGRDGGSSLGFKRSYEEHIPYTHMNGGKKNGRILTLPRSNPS
T2 sequence (P06213 28-1370 isoform P06213-2 limits assumed): as the sequence (P06213 28-1370 isoform P06213-2 limits assumed) above
T2 sequence (P06213 763-1382 partner limits assumed): as the sequence (P06213 763-1382 partner limits assumed) above

SMILES | affinity for hIR (in words) (human IR-A (holoIR-A)) | Ki (human IR-A (holoIR-A)) [nM] | EC50 [1, 4] [nM] | hIRA Phosph EC50 Run 1 ([1]; primary peptide set) [nM] | hIRA Phosph EC50 Run 2 ([1]; primary peptide set) [nM] | hIRA Phosph EC50 Run 3 ([1]; primary peptide set) [nM] | weaker activity than BHI in an hIR autophosphorylation assay [1] [fold] | effect on dissociation of pre-bound I125-insulin tracer from native membrane-expressed hIR (in words) [2] | EC50 [1, 5] [nM] | weaker affinity for hIR-A than BHI (human IR-A (holoIR-A); relative to biosynthetic human insulin) [fold] | activity in hIR autophosphorylation assay (in words) [1] | hIRA Phosph IC50 Run 1 ([3]; inhibition of insulin-stimulated phosphorylation, BHI at its EC50, run 1) [nM] | hIRA Phosph IC50 Run 2 ([3]; inhibition of insulin-stimulated phosphorylation, BHI at its EC50, run 2) [nM] | hIRA Phosph IC50 Run 3 ([3]; inhibition of insulin-stimulated phosphorylation, BHI at its EC50, run 3) [nM] | IC50 ([3]; read-out: hIRA Phosph IC50 Mean) [nM]
CC[C@H](C)[C@H](NC(=O)[C@H](CCC(N)=O)NC(=O)[C@H](C)NC(=O)[C@H](Cc1c[nH]c2ccccc12)NC(=O)[C@H](CCC(=O)O)NC(=O)[C@H](CCC(=O)O)NC(=O)[C@H](CCC(=O)O)NC(=O)[C@H](CC(C)C)NC(=O)[C@H](CO)NC(=O)Cc1ccccc1)C(=O)N[C@@H](CCC(=O)O)C(=O)N[C@H]1CSSC[C@@H](C(=O)N2CCC[C@H]2C(=O)N2CCC[C@H]2C(=O)N[C@@H](CO)C(=O)N[C@@H](CCC(=O)O)C(=O)N[C@@H](CO)C(=O)N[C@@H](Cc2ccc(OC)cc2)C(=O)N[C@@H](Cc2ccc(O)cc2)C(=O)N[C@@H](CCCCN)C(=O)N[C@@H](Cc2c[nH]c3ccccc23)C(=O)N[C@@H](Cc2ccccc2)C(=O)N[C@@H](CCC(=O)O)C(=O)N[C@@H](CCCNC(=N)N)C(=O)N[C@@H](CCC(N)=O)C(=O)N[C@@H](CC(C)C)C(N)=O)NC(=O)[C@H](CCCNC(=N)N)NC(=O)CNC(=O)[C@H](Cc2ccc(O)cc2)NC(=O)[C@H](C(C)C)NC(=O)[C@H](CCC(=O)O)NC1=O [IM172] (PhAc-SLEEEWAQIECEVYGRCPPSESY(Me)YKWFERQL-NH2; disulfide 11-17) | sub-nM | 0.255 | 7.06 | 6.352 | 8.068 | 6.757 | ~2.5 | trend similarly, but more weakly |  |  |  |  |  |  | 
COc1ccc(C[C@H](NC(=O)[C@H](C)NC(=O)[C@H](CCCCN)NC(=O)[C@H](CCCCN)NC(=O)[C@@H]2CCCN2C(C)=O)C(=O)N[C@@H](Cc2ccc(O)cc2)C(=O)N[C@@H](CCCCN)C(=O)N[C@@H](Cc2c[nH]c3ccccc23)C(=O)N[C@@H](Cc2ccccc2)C(=O)N[C@@H](CCC(=O)O)C(=O)N[C@@H](CCCNC(=N)N)C(=O)N[C@@H](CCC(N)=O)C(=O)N[C@@H](CC(C)C)C(=O)N[C@@H](CCCCN)C(N)=O)cc1 [IM459C14] (Ac-PKKAY(Me)YKWFERQLK-NH2) |  | 215 | > 1000 | >1000 | >1000 | >1000 |  | no effect | > 1000 |  |  |  |  |  | 
CC[C@H](C)[C@H](NC(=O)[C@H](CCCCN)NC(=O)C(C)(C)NC(=O)[C@H](Cc1c[nH]c2ccccc12)NC(=O)[C@H](CCC(=O)O)NC(=O)[C@H](CCC(N)=O)NC(=O)[C@H](CCC(=O)O)NC(=O)[C@H](CC(C)C)NC(=O)[C@H](CO)NC(=O)Cc1ccc(CN)cc1)C(=O)N[C@@H](CCC(=O)O)C(=O)N[C@H]1CSSC[C@@H](C(=O)N2CCC[C@H]2C(=O)N2CCC[C@H]2C(=O)N[C@@H](CCCCN)C(=O)N[C@@H](CCCCN)C(=O)N[C@@H](C)C(=O)N[C@@H](Cc2ccc(OC)cc2)C(=O)N[C@@H](Cc2ccc(O)cc2)C(=O)N[C@@H](CCCCN)C(=O)N[C@@H](Cc2c[nH]c3ccccc23)C(=O)N[C@@H](Cc2ccccc2)C(=O)N[C@@H](CCC(=O)O)C(=O)N[C@@H](CCCNC(=N)N)C(=O)N[C@@H](CCC(N)=O)C(=O)N[C@@H](CC(C)C)C(=O)N[C@@H](CCCCN)C(N)=O)NC(=O)[C@H](CCCCN)NC(=O)CNC(=O)[C@H](Cc2ccc(O)cc2)NC(=O)[C@H](C(C)C)NC(=O)[C@H](CCC(=O)O)NC1=O [IM459] (X1-SLEQEW[Aib]KIECEVYGKCPPKKAY(Me)YKWFERQLK-NH2; disulfide 11-17) | sub-nM | 0.206 | 7.36 | 6.534 | 8.090 |  | ~2.5 | decreases dissociation of the pre-bound insulin tracer |  |  |  |  |  |  | 
CC[C@H](C)[C@H](NC(=O)[C@H](CCC(N)=O)NC(=O)[C@H](C)NC(=O)[C@H](Cc1c[nH]c2ccccc12)NC(=O)[C@H](CCC(=O)O)NC(=O)[C@H](CCC(=O)O)NC(=O)[C@H](CCC(=O)O)NC(=O)[C@H](CC(C)C)NC(=O)[C@H](CO)NC(=O)Cc1ccccc1)C(=O)N[C@@H](CCC(=O)O)C(=O)N[C@H]1CSSC[C@@H](C(=O)N2CCC[C@H]2C(=O)N2CCC[C@H]2C(=O)N[C@@H](CO)C(=O)N[C@@H](CCC(=O)O)C(=O)N[C@@H](CO)C(N)=O)NC(=O)[C@H](CCCNC(=N)N)NC(=O)CNC(=O)[C@H](Cc2ccc(O)cc2)NC(=O)[C@H](C(C)C)NC(=O)[C@H](CCC(=O)O)NC1=O [IM172N22] (PhAc-SLEEEWAQIECEVYGRCPPSES-NH2; disulfide 11-17) |  | 3.08 | > 1000 | >1000 | >1000 | >1000 |  |  | > 1000 | ~10 | devoid of detectable activity | 17 | 17 | 17 | 16.9
CC[C@H](C)[C@H](NC(=O)[C@H](CCCCN)NC(=O)C(C)(C)NC(=O)[C@H](Cc1c[nH]c2ccccc12)NC(=O)[C@H](CCC(=O)O)NC(=O)[C@H](CCC(N)=O)NC(=O)[C@H](CCC(=O)O)NC(=O)[C@H](CC(C)C)NC(=O)[C@H](CO)NC(=O)Cc1ccc(CN)cc1)C(=O)N[C@@H](CCC(=O)O)C(=O)N[C@H]1CSSC[C@@H](C(=O)N2CCC[C@H]2C(=O)N2CCC[C@H]2C(=O)N[C@@H](CCCCN)C(=O)N[C@@H](CCCCN)C(N)=O)NC(=O)[C@H](CCCCN)NC(=O)CNC(=O)[C@H](Cc2ccc(O)cc2)NC(=O)[C@H](C(C)C)NC(=O)[C@H](CCC(=O)O)NC1=O [IM459N21] (X1-SLEQEW[Aib]KIECEVYGKCPPKK-NH2; disulfide 11-17) |  | 10.6 | > 1000 | >1000 | >1000 | >1000 |  | effect of IM459 is fully reproduced | > 1000 |  |  |  |  |  | 
